Reference: US20160263221A1, “MULTI-RESPONSIVE TARGETING DRUG DELIVERY SYSTEMS FOR CONTROLLED-RELEASE PHARMACEUTICAL FORMULATION” (priority 2013, published 2016)

Test system: HeLa tumor
Assay: therapeutic efficacy in HeLa tumor bearing SCID mice, volume of cancer as a function of time
Assay type: in vivo
Conditions: FIG. 6
Description: The inventors determine the therapeutic efficacy of the multi-responsive targeting nano-containers of the present invention using HeLa tumor bearing SCID mice and monitor the volume of cancer as a function of time.

## COc1cccc2c1C(=O)c1c(O)c3c(c(O)c1C2=O)C[C@@](O)(C(=O)CO)C[C@@H]3O[C@H]1C[C@H](N)[C@H](O)[C@H](C)O1 [Doxorubicin, doxorubicin]
  volume of the cancer as a function of time: the volume of the cancer increases with time
